Reference: PMC5215716, “A Target-Based Whole Cell Screen Approach To Identify Potential Inhibitors of Mycobacterium tuberculosis Signal Peptidase” (ACS Infectious Diseases, 2016)
Converted amounts (≈) assume the structure as drawn.

Test system: M. tuberculosis strain expressing LepB under the hsp60 promotor (LepB-OE)
Assay: microbe, parasite or virus in culture
Assay type: cell-based
Conditions: Mycobacterium tuberculosis, average ± SD of at least two experiments

Structure (SMILES)	MIC
C/C(=N\Nc1nc(C)cc(C)n1)c1ccccn1 [Compound 1]	18 ± 8 µM (≈ 4.34 µg/mL)
C/C(=N\NC(=O)c1ccc(N2CCCC2=O)cc1)c1ccccn1 [Compound 11]	5.6 ± 0.6 µM (≈ 1.81 µg/mL)
C/C(=N\NC(=O)C1CC1)c1ccccn1 [Compound 40]	27 ± 2 µM (≈ 5.49 µg/mL)
C/C(=N\NC(=N)c1ccccn1)c1ccccn1 [Compound 30]	> 200 µM
Oc1ccccc1/C=N/Nc1nc(-c2ccccc2)cs1 [Compound 2]	160 ± 57 µM (≈ 47.3 µg/mL)
C/C(=N\NC(=O)c1ccoc1C)c1ccccn1 [Compound 39]	6.5 ± 2.2 µM (≈ 1.58 µg/mL)
C/C(=N\NC(=O)C1CCCN(S(=O)(=O)c2ccccc2)C1)c1ccccn1 (centres unmarked) [Compound 38]	9.2 ± 4 µM (≈ 3.56 µg/mL)
Cc1cc(C)nc(NN=C(c2ccccc2)c2ccccc2)n1 [Compound 27]	103 ± 38 µM (≈ 31.1 µg/mL)
